# In paper PMC11606603, “The membrane domains of mammalian adenylyl cyclases are lipid receptors” (eLife, 2024):
# Several values for one entry are separate records, joined by “and”; a condition that tells them apart may be missing. Equal values may be shown once.
# Tests used:
# [1] = system: mAC activity in brain cortical membranes; experiment: AC assay, Gsα-stimulated brain cortical membranes; format: biochemical, mouse
# Procedure: hAC sequences were from NCBI were: ADCY1: NM_021116.3; ADCY2: NM_020546.2; ADCY3: NM_004036.4; ADCY4: NM_001198568.2; ADCY5: NM_183357.2; ADCY6: NM_015270.4; ADCY7: NM_001114.4; ADCY8: NM_001115.2; ADCY9: NM_001116.3. Human mAC genes were from GenScript and fitted with a C-terminal FLAG-tag. […] The gene was synthesized by GenScript. HEK293 cells were maintained in Dulbeccos Modified Eagle Medium (DMEM) with 10% fetal bovine serum at 37°C and 5% CO2. Transfection with AC plasmids was with PolyJet (SignaGen, Frederick, MD, USA). Permanent cell lines were generated by selection for 7 days with 600 µg/ml G418 and maintained with 300 µg/ml For membrane preparation, cells were tyrpsinized, collected by centrifugation (3000 × g, 5 min) and lysed and homogenized in 20 mM HEPES, pH 7.5, 1 mM Ethylenediaminetetraacetic acid (EDTA), 2 mM MgCl2, 1 mM Dithiothreitol (DTT), one tablet of cOmplete, EDTA-free (per 50 ml) and 250 mM sucrose by 20 strokes in a potter homogenizer on ice. Debris was removed (5 min at 1000 × g, 0°C), membranes were collected at 100,000 × g, 60 min at 0°C, suspended and stored at −80°C in 20 mM MOPS, pH 7.5, 0.5 mM EDTA, 2 mM MgCl2. […] Three cerebral cortices were dissected and homogenized in 4.5 ml cold 48 mM Tris–HCl, pH 7.4, 12 mM MgC1_2, and 0.1 mM Ethylene glycol-bis(β-aminoethyl ether)-N,N,N′,N′-tetraacetic acid (EGTA) with a Polytron hand disperser (Kinematica AG, Switzerland). […] The pellet was washed once with 5 ml 1 mM KHCO3. The final suspension in 2 ml 1 mM KHCO3 was stored in aliquots at −80°C.
# (§1) In a volume of 10 μl, AC activities were measured using 1 mM ATP, 2 mM MgCl2, 3 mM creatine phosphate, 60 μg/ml creatine kinase, and 50 mM MOPS pH 7.5. The cAMP assay kit from Cisbio (Codolet, France) was used for detection according to the supplier’s instructions. For each assay, a cAMP standard curve was established. EC50 and IC50 values were calculated by GraphPad Prism version 8.4.3 for Windows, GraphPad Software, San Diego, CA, USA, https://www.graphpad.com .
# mAC1-C1/mAC2-C2 = experiment: AC assay, Gsα-stimulated soluble catalytic dimer; format: biochemical
# Procedure: as §1
# HEK-mAC4 = target: T1, HEK-mAC4 (Homo sapiens, UniProt Q8NFM4); experiment: cAMP accumulation assay, isoproterenol-stimulated HEK-mAC4 cells; format: cell-based; details: for cAMP level (%); 100%= 10µM Isoproterenol stimulation: single experiments
# T1 construct: Human mAC genes were from GenScript and fitted with a C-terminal FLAG-tag; FLAG (C); expressed in transfected cells; host or cells: HEK293, permanently transfected
# T1 sequence (Q8NFM4 1-1077): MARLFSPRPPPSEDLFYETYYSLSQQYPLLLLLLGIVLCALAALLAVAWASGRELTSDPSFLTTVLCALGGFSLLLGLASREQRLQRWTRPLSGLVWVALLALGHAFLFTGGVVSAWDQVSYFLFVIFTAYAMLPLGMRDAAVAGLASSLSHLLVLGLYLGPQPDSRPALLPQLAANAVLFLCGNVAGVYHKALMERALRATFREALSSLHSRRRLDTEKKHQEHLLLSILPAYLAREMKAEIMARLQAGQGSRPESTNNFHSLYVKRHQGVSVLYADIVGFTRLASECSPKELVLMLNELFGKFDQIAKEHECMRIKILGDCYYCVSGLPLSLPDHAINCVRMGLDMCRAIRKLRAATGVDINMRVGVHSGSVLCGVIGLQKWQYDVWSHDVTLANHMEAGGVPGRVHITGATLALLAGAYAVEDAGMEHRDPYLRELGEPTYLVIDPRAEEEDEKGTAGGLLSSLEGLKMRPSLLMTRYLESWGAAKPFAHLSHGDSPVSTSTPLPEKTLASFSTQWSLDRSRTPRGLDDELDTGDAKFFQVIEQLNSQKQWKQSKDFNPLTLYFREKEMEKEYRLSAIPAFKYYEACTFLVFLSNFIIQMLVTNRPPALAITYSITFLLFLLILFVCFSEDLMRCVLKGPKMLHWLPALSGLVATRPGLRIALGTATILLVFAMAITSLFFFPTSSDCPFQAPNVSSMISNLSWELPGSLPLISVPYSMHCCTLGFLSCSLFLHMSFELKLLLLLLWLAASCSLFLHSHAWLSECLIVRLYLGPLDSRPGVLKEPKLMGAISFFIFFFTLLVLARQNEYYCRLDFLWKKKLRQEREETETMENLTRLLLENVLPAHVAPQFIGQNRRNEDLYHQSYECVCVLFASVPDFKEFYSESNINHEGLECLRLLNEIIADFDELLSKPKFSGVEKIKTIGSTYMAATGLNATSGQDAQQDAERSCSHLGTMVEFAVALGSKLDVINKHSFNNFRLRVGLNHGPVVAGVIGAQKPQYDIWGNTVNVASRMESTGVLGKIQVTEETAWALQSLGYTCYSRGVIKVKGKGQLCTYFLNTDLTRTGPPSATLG
# HEK-mAC1 = target: T2, HEK-mAC1 (Homo sapiens, UniProt Q08828); experiment: cAMP accumulation assay, isoproterenol-stimulated HEK-mAC1 cells; format: cell-based; details: for cAMP level (%); 100%= 10µM Isoproterenol stimulation: single experiments
# T2 construct: Human mAC genes were from GenScript and fitted with a C-terminal FLAG-tag; FLAG (C); expressed in transfected cells; host or cells: HEK293, permanently transfected
# T2 sequence (Q08828 whole entry): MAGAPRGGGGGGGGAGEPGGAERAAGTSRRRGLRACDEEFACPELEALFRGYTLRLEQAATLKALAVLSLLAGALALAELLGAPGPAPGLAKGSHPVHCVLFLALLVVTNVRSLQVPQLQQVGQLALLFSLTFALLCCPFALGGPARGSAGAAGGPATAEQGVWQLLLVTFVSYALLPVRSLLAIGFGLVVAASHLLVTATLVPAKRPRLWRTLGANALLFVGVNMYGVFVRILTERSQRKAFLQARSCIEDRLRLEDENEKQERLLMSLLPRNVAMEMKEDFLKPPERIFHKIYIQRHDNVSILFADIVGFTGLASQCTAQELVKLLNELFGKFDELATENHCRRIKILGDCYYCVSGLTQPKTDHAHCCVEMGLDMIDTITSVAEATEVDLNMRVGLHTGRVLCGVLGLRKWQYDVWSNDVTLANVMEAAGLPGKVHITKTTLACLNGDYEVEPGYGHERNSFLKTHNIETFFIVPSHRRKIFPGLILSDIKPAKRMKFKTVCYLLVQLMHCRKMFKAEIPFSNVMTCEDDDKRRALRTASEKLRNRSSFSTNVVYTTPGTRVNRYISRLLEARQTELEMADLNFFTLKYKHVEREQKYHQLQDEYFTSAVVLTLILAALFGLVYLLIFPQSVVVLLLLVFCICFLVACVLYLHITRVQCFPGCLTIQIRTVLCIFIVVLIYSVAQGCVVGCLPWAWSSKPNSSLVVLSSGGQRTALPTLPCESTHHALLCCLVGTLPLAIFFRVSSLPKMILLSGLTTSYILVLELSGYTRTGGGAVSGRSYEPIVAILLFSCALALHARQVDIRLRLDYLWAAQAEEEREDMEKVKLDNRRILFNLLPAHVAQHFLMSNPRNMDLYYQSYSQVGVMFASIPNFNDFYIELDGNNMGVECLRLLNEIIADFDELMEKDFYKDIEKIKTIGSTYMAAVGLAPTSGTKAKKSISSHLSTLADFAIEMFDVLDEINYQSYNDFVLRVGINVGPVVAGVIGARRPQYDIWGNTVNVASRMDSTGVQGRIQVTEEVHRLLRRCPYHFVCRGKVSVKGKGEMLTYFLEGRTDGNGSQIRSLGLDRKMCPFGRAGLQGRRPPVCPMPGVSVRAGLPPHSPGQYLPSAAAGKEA
smiles,measurement,setting,value
"CCCCCCCC/C=C\CCCCCCCC(=O)O [Oleic acid, Oleic ((9Z)-octadecenoic) acid]",enhancement of Gsα-stimulated cAMP formation in cortical membranes,[1]; 20 µM oleic acid,1.5 fold
same,"mAC activity [%] (100% = 300nM Gsα stimulation), mouse brain cortex",[1]; Oleic acid 1 µM,78% and 93% and 114%
same,"mAC activity [%] (100% = 300nM Gsα stimulation), mouse brain cortex",[1]; Oleic acid 3 µM,154%
same,"mAC activity [%] (100% = 300nM Gsα stimulation), mouse brain cortex",[1]; Oleic acid 6 µM,153% and 144%
same,"mAC activity [%] (100% = 300nM Gsα stimulation), mouse brain cortex",[1]; Oleic acid 8 µM,173% and 146% and 174%
same,"mAC activity [%] (100% = 300nM Gsα stimulation), mouse brain cortex",[1]; Oleic acid 10 µM,142% and 181%
same,"mAC activity [%] (100% = 300nM Gsα stimulation), mouse brain cortex",[1]; Oleic acid 20 µM,187% and 161% and 140%
same,EC50,[1]; enhancement of 300 nM Gsα-stimulated cAMP formation,5 µM
same,"AC activity (%); stimulated by 300nM Gsα, mAC1-C1/mAC2-C2",mAC1-C1/mAC2-C2; Oleic acid 0.3 µM,100%
same,"AC activity (%); stimulated by 300nM Gsα, mAC1-C1/mAC2-C2",mAC1-C1/mAC2-C2; Oleic acid 1 µM,93% and 84% and 72%
same,"AC activity (%); stimulated by 300nM Gsα, mAC1-C1/mAC2-C2",mAC1-C1/mAC2-C2; Oleic acid 3 µM,77% and 90% and 82%
same,"AC activity (%); stimulated by 300nM Gsα, mAC1-C1/mAC2-C2",mAC1-C1/mAC2-C2; Oleic acid 6 µM,78% and 77% and 84%
same,"AC activity (%); stimulated by 300nM Gsα, mAC1-C1/mAC2-C2",mAC1-C1/mAC2-C2; Oleic acid 10 µM,68% and 70% and 67%
same,"AC activity (%); stimulated by 300nM Gsα, mAC1-C1/mAC2-C2",mAC1-C1/mAC2-C2; Oleic acid 20 µM,74% and 77% and 65%
"CCCCC/C=C\C/C=C\C/C=C\C/C=C\CCCC(=O)O [Arachidonic acid, Arachidonic ((5Z,8Z,11Z,14Z)-eicosatetraenoic) acid]",Effect on isoproterenol-stimulated cAMP formation in HEK-mAC4,"HEK-mAC4; 10 µM isoproterenol, in words",not attenuated
same,cAMP level (%); 100%= 10µM Isoproterenol stimulation,"HEK-mAC4; HEK-mAC4, 1e-5 µM",136%
same,cAMP level (%); 100%= 10µM Isoproterenol stimulation,"HEK-mAC4; HEK-mAC4, 0.0001 µM",111%
same,cAMP level (%); 100%= 10µM Isoproterenol stimulation,"HEK-mAC4; HEK-mAC4, 0.001 µM",114%
same,cAMP level (%); 100%= 10µM Isoproterenol stimulation,"HEK-mAC4; HEK-mAC4, 0.01 µM",81% and 101% and 120% and 122%
same,cAMP level (%); 100%= 10µM Isoproterenol stimulation,"HEK-mAC4; HEK-mAC4, 0.03 µM",124%
same,cAMP level (%); 100%= 10µM Isoproterenol stimulation,"HEK-mAC4; HEK-mAC4, 0.06 µM",102%
same,cAMP level (%); 100%= 10µM Isoproterenol stimulation,"HEK-mAC4; HEK-mAC4, 0.1 µM",84% and 94% and 116% and 103%
same,cAMP level (%); 100%= 10µM Isoproterenol stimulation,"HEK-mAC4; HEK-mAC4, 0.6 µM",108%
same,cAMP level (%); 100%= 10µM Isoproterenol stimulation,"HEK-mAC4; HEK-mAC4, 1 µM",106% and 107% and 121% and 127% and 99% and 109% and 161% and 110%
same,cAMP level (%); 100%= 10µM Isoproterenol stimulation,"HEK-mAC4; HEK-mAC4, 3 µM",93% and 101% and 129% and 97% and 124% and 139%
same,cAMP level (%); 100%= 10µM Isoproterenol stimulation,"HEK-mAC4; HEK-mAC4, 10 µM",112% and 82% and 111% and 109% and 125% and 147%
same,cAMP level (%); 100%= 10µM Isoproterenol stimulation,"HEK-mAC4; HEK-mAC4, 30 µM",103% and 112% and 97% and 105% and 131%
same,cAMP level (%); 100%= 10µM Isoproterenol stimulation,"HEK-mAC4; HEK-mAC4, 60 µM",95% and 112% and 121% and 114% and 128%
same,cAMP level (%); 100%= 10µM Isoproterenol stimulation,"HEK-mAC4; HEK-mAC4, 100 µM",99% and 78% and 112% and 85% and 100% and 146% and 145%
same,IC50,"HEK-mAC1; 10 µM isoproterenol, 0.5 mM IBMX",0.00025 µM
same,cAMP level (%); 100%= 10µM Isoproterenol stimulation,"HEK-mAC1; HEK-mAC1, 1e-5 µM",113% and 69%
same,cAMP level (%); 100%= 10µM Isoproterenol stimulation,"HEK-mAC1; HEK-mAC1, 0.0001 µM",98% and 73%
same,cAMP level (%); 100%= 10µM Isoproterenol stimulation,"HEK-mAC1; HEK-mAC1, 0.001 µM",93% and 69%
same,cAMP level (%); 100%= 10µM Isoproterenol stimulation,"HEK-mAC1; HEK-mAC1, 0.003 µM",61%
same,cAMP level (%); 100%= 10µM Isoproterenol stimulation,"HEK-mAC1; HEK-mAC1, 0.006 µM",59%
same,cAMP level (%); 100%= 10µM Isoproterenol stimulation,"HEK-mAC1; HEK-mAC1, 0.01 µM",62% and 55% and 52% and 91% and 64%
same,cAMP level (%); 100%= 10µM Isoproterenol stimulation,"HEK-mAC1; HEK-mAC1, 0.1 µM",77% and 55% and 49% and 97% and 63%
same,cAMP level (%); 100%= 10µM Isoproterenol stimulation,"HEK-mAC1; HEK-mAC1, 0.6 µM",47%
same,cAMP level (%); 100%= 10µM Isoproterenol stimulation,"HEK-mAC1; HEK-mAC1, 60 µM",72% and 67% and 51% and 53% and 65%
same,cAMP level (%); 100%= 10µM Isoproterenol stimulation,"HEK-mAC1; HEK-mAC1, 100 µM",76% and 47% and 57% and 42% and 44% and 60% and 81%
